Data taken from ChEMBL document CHEMBL4507299, “Data for DCP probe PF-04554878” (2021).

Columns and labels:
[1] = test system: Phosphatidylinositol 4,5-bisphosphate 3-kinase catalytic subunit alpha isoform (Homo sapiens), P42336 [I800L]
[2] = target: Myosin-IIIa (Homo sapiens) (UniProt Q8NEV4)
[3] = target: Tyrosine-protein kinase Lyn (Homo sapiens, UniProt P07948)
[4] = target: Histamine H1 receptor (Homo sapiens) (UniProt P35367); conditions: Compound concentration 10.0 uM
[5] = target: Casein kinase II subunit alpha' (Homo sapiens) (UniProt P19784)
[6] = target: Serine/threonine-protein kinase pim-2 (Homo sapiens) (UniProt Q9P1W9)
[7] = target: 5-hydroxytryptamine receptor 2A (Homo sapiens) (UniProt P28223); conditions: Compound concentration 10.0 uM
[8] = target: Citron Rho-interacting kinase (Homo sapiens) (UniProt O14578)
[9] = target: Ribosomal protein S6 kinase alpha-3 (Homo sapiens) (UniProt P51812)
[10] = target: Cyclin-dependent kinase 5 (Homo sapiens) (UniProt Q00535)
[11] = target: Insulin-like growth factor 1 receptor (Homo sapiens) (UniProt P08069)
[12] = target: Protein-tyrosine kinase 6 (Homo sapiens) (UniProt Q13882)
[13] = target: Cyclin-dependent kinase 3 (Homo sapiens) (UniProt Q00526)
[14] = target: Cyclin-dependent kinase-like 1 (Homo sapiens) (UniProt Q00532)
[15] = target: Dual specificity mitogen-activated protein kinase kinase 4 (Homo sapiens) (UniProt P45985)
[16] = target: Serine/threonine-protein kinase TNNI3K (Homo sapiens) (UniProt Q59H18)
[17] = target: Cyclin-dependent kinase 15 (Homo sapiens) (UniProt Q96Q40)
[18] = test system: Mast/stem cell growth factor receptor Kit (Homo sapiens), P10721 [L576P]
[19] = test system: Epidermal growth factor receptor (Homo sapiens), P00533 [G719S]
[20] = target: Serine/threonine-protein kinase MRCK beta (Homo sapiens) (UniProt Q9Y5S2)
[21] = test system: Mast/stem cell growth factor receptor Kit (Homo sapiens), P10721 [D816H]
[22] = target: Dual specificity tyrosine-phosphorylation-regulated kinase 1A (Homo sapiens) (UniProt Q13627)
[23] = target: MAP/microtubule affinity-regulating kinase 4 (Homo sapiens) (UniProt Q96L34)
[24] = target: Receptor tyrosine-protein kinase erbB-3 (Homo sapiens) (UniProt P21860)
[25] = target: NUAK family SNF1-like kinase 1 (Homo sapiens) (UniProt O60285)
[26] = target: Tyrosine-protein kinase receptor UFO (Homo sapiens) (UniProt P30530)
[27] = target: Bone morphogenetic protein receptor type-1A (Homo sapiens) (UniProt P36894)
[28] = target: Cyclin-dependent kinase 16 (Homo sapiens) (UniProt Q00536)
[29] = target: Protein kinase C theta type (Homo sapiens) (UniProt Q04759)
[30] = target: MAP kinase-activated protein kinase 5 (Homo sapiens) (UniProt Q8IW41)
[31] = target: Serine/threonine-protein kinase Nek9 (Homo sapiens) (UniProt Q8TD19)
[32] = target: Cyclin-dependent kinase 11B (Homo sapiens) (UniProt P21127)
[33] = test system: Proto-oncogene tyrosine-protein kinase receptor Ret (Homo sapiens), P07949 [V804M]
[34] = target: Serine/threonine-protein kinase D1 (Homo sapiens) (UniProt Q15139)
[35] = target: Proto-oncogene tyrosine-protein kinase Src (Homo sapiens, UniProt P12931)
[36] = test system: Tyrosine-protein kinase ABL1 (Homo sapiens), P00519 [Q252H]
[37] = target: Tyrosine-protein kinase JAK1 (Homo sapiens) (UniProt P23458)
[38] = target: BDNF/NT-3 growth factors receptor (Homo sapiens) (UniProt Q16620)
[39] = test system: ALK tyrosine kinase receptor (Homo sapiens), Q9UM73 [L1196M]
[40] = target: Serine/threonine-protein kinase N1 (Homo sapiens) (UniProt Q16512)
[41] = target: Epidermal growth factor receptor (Homo sapiens) (UniProt P00533)
[42] = target: cAMP-dependent protein kinase catalytic subunit beta (Homo sapiens) (UniProt P22694)
[43] = target: Serine/threonine-protein kinase PRP4 homolog (Homo sapiens) (UniProt Q13523)
[44] = target: Ribosomal protein S6 kinase alpha-5 (Homo sapiens) (UniProt O75582)
[45] = target: Beta-adrenergic receptor kinase 1 (Homo sapiens) (UniProt P25098)
[46] = target: Protein kinase C delta type (Homo sapiens) (UniProt Q05655)
[47] = Compound concentration 100.0 nM
[48] = Compound concentration 1000.0 nM

Ribosomal protein S6 kinase alpha-5 (Homo sapiens), sequence (O75582 whole entry, looked up): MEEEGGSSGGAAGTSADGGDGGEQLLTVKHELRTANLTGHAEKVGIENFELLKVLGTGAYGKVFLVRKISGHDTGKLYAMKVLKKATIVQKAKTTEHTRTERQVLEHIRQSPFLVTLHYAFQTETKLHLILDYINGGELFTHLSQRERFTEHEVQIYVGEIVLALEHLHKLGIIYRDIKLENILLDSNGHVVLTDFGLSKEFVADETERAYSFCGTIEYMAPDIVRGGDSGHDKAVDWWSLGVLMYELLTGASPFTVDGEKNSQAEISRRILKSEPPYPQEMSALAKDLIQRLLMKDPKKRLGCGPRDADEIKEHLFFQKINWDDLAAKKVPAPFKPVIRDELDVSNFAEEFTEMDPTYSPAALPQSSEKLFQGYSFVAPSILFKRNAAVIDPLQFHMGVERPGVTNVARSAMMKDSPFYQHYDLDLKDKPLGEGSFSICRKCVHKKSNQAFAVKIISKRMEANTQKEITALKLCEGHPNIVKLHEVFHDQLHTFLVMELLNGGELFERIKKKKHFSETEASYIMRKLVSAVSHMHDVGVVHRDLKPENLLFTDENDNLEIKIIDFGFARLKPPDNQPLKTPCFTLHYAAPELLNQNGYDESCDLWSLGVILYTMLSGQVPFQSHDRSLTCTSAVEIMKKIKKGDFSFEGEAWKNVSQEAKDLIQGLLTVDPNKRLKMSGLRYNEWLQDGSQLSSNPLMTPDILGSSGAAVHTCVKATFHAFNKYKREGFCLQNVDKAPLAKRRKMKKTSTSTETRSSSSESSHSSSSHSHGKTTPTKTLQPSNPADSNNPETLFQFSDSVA
Casein kinase II subunit alpha' (Homo sapiens), sequence (P19784 whole entry, looked up): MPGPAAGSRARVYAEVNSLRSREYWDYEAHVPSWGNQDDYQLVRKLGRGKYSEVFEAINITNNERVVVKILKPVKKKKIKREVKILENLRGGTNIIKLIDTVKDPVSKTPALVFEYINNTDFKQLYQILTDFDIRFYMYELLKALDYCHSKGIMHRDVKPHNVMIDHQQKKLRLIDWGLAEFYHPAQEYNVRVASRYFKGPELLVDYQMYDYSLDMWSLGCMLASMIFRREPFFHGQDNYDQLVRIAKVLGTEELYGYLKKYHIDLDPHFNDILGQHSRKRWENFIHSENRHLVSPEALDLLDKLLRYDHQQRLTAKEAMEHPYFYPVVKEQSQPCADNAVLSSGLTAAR
Phosphatidylinositol 4,5-bisphosphate 3-kinase catalytic subunit alpha isoform (Homo sapiens), P42336 [I800L], sequence (P42336 whole entry I800L, canonical isoform): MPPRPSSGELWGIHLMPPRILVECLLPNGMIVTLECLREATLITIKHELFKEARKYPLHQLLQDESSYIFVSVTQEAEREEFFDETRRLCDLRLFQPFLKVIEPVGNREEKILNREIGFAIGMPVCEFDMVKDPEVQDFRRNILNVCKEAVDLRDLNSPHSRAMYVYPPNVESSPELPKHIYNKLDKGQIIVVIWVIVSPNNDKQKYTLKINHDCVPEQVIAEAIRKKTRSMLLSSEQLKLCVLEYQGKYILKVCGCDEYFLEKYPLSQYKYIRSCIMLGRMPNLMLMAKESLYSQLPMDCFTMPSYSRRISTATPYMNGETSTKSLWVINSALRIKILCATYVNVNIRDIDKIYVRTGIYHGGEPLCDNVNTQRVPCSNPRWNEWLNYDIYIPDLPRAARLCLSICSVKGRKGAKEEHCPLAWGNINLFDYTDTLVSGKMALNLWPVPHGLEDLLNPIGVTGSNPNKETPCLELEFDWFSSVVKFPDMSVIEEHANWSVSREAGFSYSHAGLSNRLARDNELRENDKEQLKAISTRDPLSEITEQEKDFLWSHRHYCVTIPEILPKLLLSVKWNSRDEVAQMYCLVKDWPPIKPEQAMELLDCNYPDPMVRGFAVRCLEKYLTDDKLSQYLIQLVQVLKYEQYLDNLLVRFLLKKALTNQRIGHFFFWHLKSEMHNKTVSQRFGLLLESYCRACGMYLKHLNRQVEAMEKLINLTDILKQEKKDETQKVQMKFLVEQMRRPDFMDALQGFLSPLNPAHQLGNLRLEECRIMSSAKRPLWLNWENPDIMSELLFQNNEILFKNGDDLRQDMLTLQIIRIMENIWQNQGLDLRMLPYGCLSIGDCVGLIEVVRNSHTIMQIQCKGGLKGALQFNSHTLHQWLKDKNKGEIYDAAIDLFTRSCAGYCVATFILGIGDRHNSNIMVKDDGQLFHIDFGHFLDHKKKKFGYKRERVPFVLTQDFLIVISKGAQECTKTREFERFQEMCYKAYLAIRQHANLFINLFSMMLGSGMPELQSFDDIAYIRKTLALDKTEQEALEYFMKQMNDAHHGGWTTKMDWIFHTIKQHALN
ALK tyrosine kinase receptor (Homo sapiens), Q9UM73 [L1196M], sequence (Q9UM73 whole entry L1196M, looked up): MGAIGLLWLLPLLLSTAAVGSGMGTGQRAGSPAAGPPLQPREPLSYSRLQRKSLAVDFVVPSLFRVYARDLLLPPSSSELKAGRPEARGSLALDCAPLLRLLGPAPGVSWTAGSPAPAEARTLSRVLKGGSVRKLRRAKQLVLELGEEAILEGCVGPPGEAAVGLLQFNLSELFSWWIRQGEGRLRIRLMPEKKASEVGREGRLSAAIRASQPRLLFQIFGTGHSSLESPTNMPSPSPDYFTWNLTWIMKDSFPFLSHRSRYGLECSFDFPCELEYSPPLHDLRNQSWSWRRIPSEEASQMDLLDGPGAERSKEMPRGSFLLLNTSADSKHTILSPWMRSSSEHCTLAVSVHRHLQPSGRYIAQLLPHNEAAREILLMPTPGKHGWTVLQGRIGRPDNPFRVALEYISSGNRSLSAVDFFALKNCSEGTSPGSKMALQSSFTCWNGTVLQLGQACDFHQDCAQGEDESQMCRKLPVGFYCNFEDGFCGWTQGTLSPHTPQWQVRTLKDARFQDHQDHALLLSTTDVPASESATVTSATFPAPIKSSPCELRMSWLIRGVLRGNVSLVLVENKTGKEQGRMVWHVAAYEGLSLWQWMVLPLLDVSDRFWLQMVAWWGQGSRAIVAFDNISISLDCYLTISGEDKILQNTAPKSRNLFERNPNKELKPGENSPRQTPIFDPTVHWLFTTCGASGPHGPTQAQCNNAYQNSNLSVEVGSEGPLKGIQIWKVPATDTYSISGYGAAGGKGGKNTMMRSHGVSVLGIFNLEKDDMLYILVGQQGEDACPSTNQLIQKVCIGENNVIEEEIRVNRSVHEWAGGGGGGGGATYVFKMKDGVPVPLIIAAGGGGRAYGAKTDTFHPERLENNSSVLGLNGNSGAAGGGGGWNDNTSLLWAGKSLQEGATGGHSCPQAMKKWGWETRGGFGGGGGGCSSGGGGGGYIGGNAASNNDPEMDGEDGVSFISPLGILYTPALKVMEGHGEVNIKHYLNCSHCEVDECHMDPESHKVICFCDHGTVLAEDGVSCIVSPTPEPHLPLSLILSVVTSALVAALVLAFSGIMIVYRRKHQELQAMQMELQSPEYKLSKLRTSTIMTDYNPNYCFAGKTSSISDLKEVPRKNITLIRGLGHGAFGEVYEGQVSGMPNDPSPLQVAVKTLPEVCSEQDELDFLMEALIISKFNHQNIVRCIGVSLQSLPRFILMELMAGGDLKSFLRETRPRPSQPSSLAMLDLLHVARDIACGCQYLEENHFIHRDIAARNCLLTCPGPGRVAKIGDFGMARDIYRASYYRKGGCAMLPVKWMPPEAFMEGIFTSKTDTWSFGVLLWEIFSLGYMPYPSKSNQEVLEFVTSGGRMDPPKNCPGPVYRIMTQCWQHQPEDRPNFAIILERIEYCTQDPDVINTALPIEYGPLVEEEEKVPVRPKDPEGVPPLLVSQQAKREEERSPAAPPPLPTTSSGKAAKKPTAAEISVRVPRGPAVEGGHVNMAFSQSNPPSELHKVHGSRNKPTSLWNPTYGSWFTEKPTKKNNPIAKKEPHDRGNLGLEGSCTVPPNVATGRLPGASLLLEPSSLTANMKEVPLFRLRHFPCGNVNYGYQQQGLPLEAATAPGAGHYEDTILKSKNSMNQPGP
Mast/stem cell growth factor receptor Kit (Homo sapiens), P10721 [D816H], sequence (P10721 whole entry D816H): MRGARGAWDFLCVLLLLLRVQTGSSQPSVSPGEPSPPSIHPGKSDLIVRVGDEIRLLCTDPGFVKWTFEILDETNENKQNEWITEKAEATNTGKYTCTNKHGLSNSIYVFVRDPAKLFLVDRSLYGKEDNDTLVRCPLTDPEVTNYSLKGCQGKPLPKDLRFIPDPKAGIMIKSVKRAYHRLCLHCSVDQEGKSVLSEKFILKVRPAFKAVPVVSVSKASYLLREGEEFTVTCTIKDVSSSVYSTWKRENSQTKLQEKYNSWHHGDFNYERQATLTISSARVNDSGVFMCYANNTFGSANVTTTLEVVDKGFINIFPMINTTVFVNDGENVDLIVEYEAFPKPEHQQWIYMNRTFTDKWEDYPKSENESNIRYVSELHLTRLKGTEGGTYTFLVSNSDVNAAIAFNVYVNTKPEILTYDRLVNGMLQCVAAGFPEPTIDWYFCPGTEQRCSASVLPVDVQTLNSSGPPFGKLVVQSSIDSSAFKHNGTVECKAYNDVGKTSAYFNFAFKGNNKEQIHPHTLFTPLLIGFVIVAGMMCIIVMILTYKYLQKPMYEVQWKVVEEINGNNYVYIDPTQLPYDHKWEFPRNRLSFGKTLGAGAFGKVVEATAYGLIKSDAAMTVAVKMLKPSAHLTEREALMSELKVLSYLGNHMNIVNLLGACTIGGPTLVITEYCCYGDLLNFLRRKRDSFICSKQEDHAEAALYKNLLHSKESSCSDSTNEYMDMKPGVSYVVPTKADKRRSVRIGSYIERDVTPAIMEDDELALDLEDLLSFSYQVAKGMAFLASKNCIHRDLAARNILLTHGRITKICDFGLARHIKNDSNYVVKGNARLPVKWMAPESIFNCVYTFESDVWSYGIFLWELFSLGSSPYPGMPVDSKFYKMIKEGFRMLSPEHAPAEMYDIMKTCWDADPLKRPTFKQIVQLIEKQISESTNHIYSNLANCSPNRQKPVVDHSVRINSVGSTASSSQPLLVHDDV
Mast/stem cell growth factor receptor Kit (Homo sapiens), P10721 [L576P], sequence (P10721 whole entry L576P): as the sequence (P10721 whole entry D816H) above, with L576P, H816D counted along it

CNC(=O)c1ccc(Nc2ncc(C(F)(F)F)c(NCc3nccnc3N(C)S(C)(=O)=O)n2)cc1 [DEFACTINIB]
residual activity [1, 47]: 100% | residual activity [2, 47]: 100% | residual activity [3, 47]: 85% | inhibition [4]: -3.38% | residual activity [5, 47]: 28% | residual activity [6, 47]: 100% | inhibition [7]: 0.93% | residual activity [8, 47]: 68% | residual activity [9, 47]: 100% | residual activity [10, 47]: 81% | residual activity [11, 47]: 84% | residual activity [12, 47]: 100% | residual activity [13, 47]: 100% | residual activity [14, 47]: 82% | residual activity [15, 47]: 71% | residual activity [16, 47]: 100% | residual activity [17, 47]: 67% | residual activity [18, 47]: 86% | residual activity [19, 47]: 92% | residual activity [20, 47]: 90% | residual activity [21, 47]: 71% | residual activity [22, 47]: 71% | residual activity [23, 47]: 83% | residual activity [24, 47]: 93% | residual activity [25, 47]: 31% | residual activity [26, 47]: 51% | residual activity [27, 47]: 100% | residual activity [28, 47]: 99% | residual activity [29, 47]: 89% | residual activity [30, 47]: 76% | residual activity [31, 47]: 80% | residual activity [32, 47]: 95% | residual activity [33, 47]: 30% | residual activity [34, 47]: 100% | residual activity [35, 47]: 79% | residual activity [36, 47]: 100% | residual activity [37, 47]: 29% | residual activity [38, 47]: 21% | residual activity [39, 47]: 85% | residual activity [40, 47]: 100% | residual activity [41, 47]: 88% | residual activity [42, 47]: 93% | residual activity [43, 47]: 69% | residual activity [44, 47]: 80% | residual activity [45, 47]: 89% | residual activity [46, 47]: 100%

CN(c1ccnc(CNc2nc(Nc3ccc4c(c3)CC(=O)N4)ncc2C(F)(F)F)n1)S(C)(=O)=O [PF-00911705]
residual activity [1, 48]: 84% | residual activity [2, 48]: 100% | residual activity [3, 48]: 80% | inhibition [4]: 21.4% | residual activity [5, 48]: 6.7% | residual activity [6, 48]: 100% | inhibition [7]: 4.75% | residual activity [8, 48]: 99% | residual activity [9, 48]: 85% | residual activity [10, 48]: 79% | residual activity [11, 48]: 100% | residual activity [12, 48]: 100% | residual activity [13, 48]: 90% | residual activity [14, 48]: 61% | residual activity [15, 48]: 23% | residual activity [16, 48]: 73% | residual activity [17, 48]: 63% | residual activity [18, 48]: 66% | residual activity [19, 48]: 89% | residual activity [20, 48]: 100% | residual activity [21, 48]: 44% | residual activity [22, 48]: 19% | residual activity [23, 48]: 63% | residual activity [24, 48]: 78% | residual activity [25, 48]: 21% | residual activity [26, 48]: 21% | residual activity [27, 48]: 89% | residual activity [28, 48]: 82% | residual activity [29, 48]: 55% | residual activity [30, 48]: 94% | residual activity [31, 48]: 63% | residual activity [32, 48]: 91% | residual activity [33, 48]: 31% | residual activity [34, 48]: 100% | residual activity [35, 48]: 60% | residual activity [36, 48]: 49% | residual activity [37, 48]: 20% | residual activity [38, 48]: 21% | residual activity [39, 48]: 65% | residual activity [40, 48]: 43% | residual activity [41, 48]: 74% | residual activity [42, 48]: 88% | residual activity [43, 48]: 23% | residual activity [44, 48]: 78% | residual activity [45, 48]: 31% | residual activity [46, 48]: 78%
